From ChEMBL document CHEMBL3885861, “Open TG-GATES”

Organism: Rattus norvegicus
Assay: Open TG-GATES - Regimen: Single
Assay type: toxicity, organism-based, Sprague-Dawley
Set-up: regimen Single, gender Male, age 6 weeks
Settings: in vivo, ip, 0.1 mg/kg, route intraperitoneal injection, dose 100 ug/Kg, dose level Middle; for APTT / Bas / Eos / Fbg / Hb / Ht / Lym / MCH / MCHC / MCV / Mono / Neu / PT / Plat / RBC / Ret / WBC: tissue Blood; for KIDNEY_L / KIDNEY_R / KIDNEY_TOTAL: tissue Kidney; for LIVER: tissue Liver; for A/G / ALP / ALT / AST / BUN / CRE / Ca / Cl / DBIL / GLC / IP / K / LDH / Na / PL / RALB / TBIL / TC / TG / TP / gamma-GTP: tissue Plasma

CC(=O)N[C@H]1[C@@H](O[C@@H]2O[C@H](CC(O)[C@H]3O[C@@H](n4ccc(=O)[nH]c4=O)[C@H](O)[C@@H]3O)[C@H](O)[C@H](O)[C@H]2NC(=O)/C=C/CC(C)C)O[C@H](CO)[C@@H](N)[C@@H]1O (some centres not stated) [TUNICAMYCIN]
TERMINAL_BW (3 h): 221.2 g | APTT (3 h): 23.1 s | Bas (3 h): 0% | Eos (3 h): 0.6% | Fbg (3 h): 292.6 mg/dL | Hb (3 h): 12.8 g/dL | Ht (3 h): 39.3% | Lym (3 h): 71.2% | MCH (3 h): 20.2 pg | MCHC (3 h): 32.6% | MCV (3 h): 62 fL | Mono (3 h): 3.2% | Neu (3 h): 24.2% | PT (3 h): 15.9 s | Plat (3 h): 122.6 x10_4/uL | RBC (3 h): 636.4 x10_4/ul | Ret (3 h): 8.1% | WBC (3 h): 97.2 x10_2/uL | KIDNEY_L (3 h): 0.9 g | KIDNEY_R (3 h): 0.9 g | KIDNEY_TOTAL (3 h): 1.9 g | LIVER (3 h): 10.4 g | A/G (3 h): 1.2 | ALP (3 h): 1559 IU/L | ALT (3 h): 38.8 IU/L | AST (3 h): 76.8 IU/L | BUN (3 h): 13 mg/dL | CRE (3 h): 0.2 mg/dL | Ca (3 h): 10.6 mg/dL | Cl (3 h): 106.8 meq/L | DBIL (3 h): 0 mg/dL | GLC (3 h): 167.2 mg/dL | IP (3 h): 8.2 mg/dL | K (3 h): 4.2 meq/L | LDH (3 h): 158.2 IU/L | Na (3 h): 142.8 meq/L | PL (3 h): 122.8 mg/dL | RALB (3 h): 2.9 g/dL | TBIL (3 h): 0.012 mg/dL | TC (3 h): 70.4 mg/dL | TG (3 h): 70.2 mg/dL | TP (3 h): 5.3 g/dL | gamma-GTP (3 h): 1.4 IU/L | TERMINAL_BW (6 h): 216.8 g | APTT (6 h): 22.4 s | Bas (6 h): 0% | Eos (6 h): 0.4% | Fbg (6 h): 315.6 mg/dL | Hb (6 h): 13.2 g/dL | Ht (6 h): 40.1% | Lym (6 h): 67% | MCH (6 h): 21 pg | MCHC (6 h): 33% | MCV (6 h): 63.7 fL | Mono (6 h): 2% | Neu (6 h): 30% | PT (6 h): 15.7 s | Plat (6 h): 110 x10_4/uL | RBC (6 h): 630.4 x10_4/ul | Ret (6 h): 7.9% | WBC (6 h): 95.8 x10_2/uL | KIDNEY_L (6 h): 1 g | KIDNEY_R (6 h): 1 g | KIDNEY_TOTAL (6 h): 1.9 g | LIVER (6 h): 9.2 g | A/G (6 h): 1.2 | ALP (6 h): 1277.4 IU/L | ALT (6 h): 39.8 IU/L | AST (6 h): 70.4 IU/L | BUN (6 h): 11 mg/dL | CRE (6 h): 0.2 mg/dL | Ca (6 h): 10.8 mg/dL | Cl (6 h): 106.2 meq/L | DBIL (6 h): 0 mg/dL | GLC (6 h): 175 mg/dL | IP (6 h): 9.3 mg/dL | K (6 h): 4.2 meq/L | LDH (6 h): 161.6 IU/L | Na (6 h): 141.4 meq/L | PL (6 h): 127.2 mg/dL | RALB (6 h): 3 g/dL | TBIL (6 h): 0.022 mg/dL | TC (6 h): 74 mg/dL | TG (6 h): 51.8 mg/dL | TP (6 h): 5.3 g/dL | gamma-GTP (6 h): 1.2 IU/L | TERMINAL_BW (9 h): 221.7 g | APTT (9 h): 23.2 s | Bas (9 h): 0% | Eos (9 h): 1% | Fbg (9 h): 305.8 mg/dL | Hb (9 h): 12.9 g/dL | Ht (9 h): 39.8% | Lym (9 h): 81% | MCH (9 h): 20.7 pg | MCHC (9 h): 32.4% | MCV (9 h): 64 fL | Mono (9 h): 2.2% | Neu (9 h): 15.4% | PT (9 h): 15.8 s | Plat (9 h): 123.1 x10_4/uL | RBC (9 h): 623 x10_4/ul | Ret (9 h): 7.8% | WBC (9 h): 86.6 x10_2/uL | KIDNEY_L (9 h): 0.9 g | KIDNEY_R (9 h): 1 g | KIDNEY_TOTAL (9 h): 1.9 g | LIVER (9 h): 9.2 g | A/G (9 h): 1.2 | ALP (9 h): 1517.2 IU/L | ALT (9 h): 35.6 IU/L | AST (9 h): 71 IU/L | BUN (9 h): 12.4 mg/dL | CRE (9 h): 0.1 mg/dL | Ca (9 h): 10.9 mg/dL | Cl (9 h): 106.2 meq/L | DBIL (9 h): 0 mg/dL | GLC (9 h): 173.6 mg/dL | IP (9 h): 9.2 mg/dL | K (9 h): 4.2 meq/L | LDH (9 h): 137.4 IU/L | Na (9 h): 141.8 meq/L | PL (9 h): 124.8 mg/dL | RALB (9 h): 2.9 g/dL | TBIL (9 h): 0.014 mg/dL | TC (9 h): 70.2 mg/dL | TG (9 h): 76 mg/dL | TP (9 h): 5.3 g/dL | gamma-GTP (9 h): 1 IU/L | TERMINAL_BW (24 h): 228.5 g | APTT (24 h): 22.4 s | Bas (24 h): 0% | Eos (24 h): 0.8% | Fbg (24 h): 332.8 mg/dL | Hb (24 h): 13.3 g/dL | Ht (24 h): 41.4% | Lym (24 h): 80.6% | MCH (24 h): 19.9 pg | MCHC (24 h): 32% | MCV (24 h): 62 fL | Mono (24 h): 2.6% | Neu (24 h): 15.2% | PT (24 h): 15.8 s | Plat (24 h): 105.4 x10_4/uL | RBC (24 h): 668 x10_4/ul | Ret (24 h): 7.2% | WBC (24 h): 84.3 x10_2/uL | KIDNEY_L (24 h): 0.9 g | KIDNEY_R (24 h): 1 g | KIDNEY_TOTAL (24 h): 1.9 g | LIVER (24 h): 10.2 g | A/G (24 h): 1.2 | ALP (24 h): 1529.6 IU/L | ALT (24 h): 46.2 IU/L | AST (24 h): 74.2 IU/L | BUN (24 h): 15.2 mg/dL | CRE (24 h): 0.1 mg/dL | Ca (24 h): 10.5 mg/dL | Cl (24 h): 105.4 meq/L | DBIL (24 h): 0 mg/dL | GLC (24 h): 181 mg/dL | IP (24 h): 7.3 mg/dL | K (24 h): 4.2 meq/L | LDH (24 h): 152.8 IU/L | Na (24 h): 142 meq/L | PL (24 h): 143.8 mg/dL | RALB (24 h): 3.1 g/dL | TBIL (24 h): 0.014 mg/dL | TC (24 h): 77.6 mg/dL | TG (24 h): 78.2 mg/dL | TP (24 h): 5.6 g/dL | gamma-GTP (24 h): 1.4 IU/L
